Laboratory results reported in US10800791B2, “Triazole ACC inhibitors and uses thereof” (Gilead Apollo, LLC, priority 2015, dated 2020).
In brackets after ≈: the same amount, converted by molar mass. Read-outs that look alike come from different tables or passages of the source.

Legend:
[1] = system: C. albicans; assay: Antifungal Activity Assay (broth microtiter MIC), C. albicans; format: cell-based, Candida albicans; details: Candida albicans, ATCC90028, 48 h
Outline: (§1)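 MICs were scored by eye at 48 h relative to the growth control. Plates followed CLSI M27-A3, with Candida suspensions in RPMI 1640+MOPS giving a final 2.5×10^3 CFU/mL; the colonies came from Sabouraud agar grown overnight at 35 °C.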

[2] = system: C. krusei; assay: Antifungal Activity Assay (broth microtiter MIC), C. krusei; format: cell-based, Candida krusei; details: Pichia kudriavzevii, ATCC6258, 48 h
Outline: as §1

[3] = target: human (hACC2) (Homo sapiens, UniProt O00763); assay: In vitro ACC inhibition assay (ADP-Glo), hACC2; format: biochemical; details: 5 nM ACC2, 20 μM ATP, 20 μM acetyl-CoA
Description: The detailed procedure is as follows. […] 10 μL ADP glo reagent was added. […] 20 μL kinase detection reagent was added.

[4] = target: fungal (fACC2) (UniProt Q00955); details: read-out: fACC2 (in vitro ACC2 Inhibition Assay, IC50), ADP-Glo, 5 nM ACC2, 20 μM ATP, 20 μM acetyl-CoA
[5] = system: C. parapsilosis; assay: Antifungal Activity Assay (broth microtiter MIC), C. parapsilosis; format: cell-based, Candida parapsilosis; details: Lodderomyces parapsilosis, ATCC22019, 48 h
Outline: as §1

[6] = Table 3b (additional results), ATCC 90028, 3 replicates, MIC recorded at 48 h, read-out: MIC, C. albicans ATCC 90028
[7] = Table 3b (additional results), ATCC 6258, 3 replicates, MIC recorded at 48 h, read-out: MIC, C. krusei ATCC 6258
[8] = Table 3b (additional results), ATCC 22019, 3 replicates, MIC recorded at 48 h, read-out: MIC, C. parapsilosis ATCC 22019
[9] = read-out: MIC, C. albicans ATCC 90028, Table 3b (additional results), 3 replicates, MIC recorded at 48 h
[10] = read-out: MIC, C. krusei ATCC 6258, Table 3b (additional results), 3 replicates, MIC recorded at 48 h
[11] = read-out: MIC, C. parapsilosis ATCC 22019, Table 3b (additional results), 3 replicates, MIC recorded at 48 h

Chain of human (hACC2) (O00763 whole entry): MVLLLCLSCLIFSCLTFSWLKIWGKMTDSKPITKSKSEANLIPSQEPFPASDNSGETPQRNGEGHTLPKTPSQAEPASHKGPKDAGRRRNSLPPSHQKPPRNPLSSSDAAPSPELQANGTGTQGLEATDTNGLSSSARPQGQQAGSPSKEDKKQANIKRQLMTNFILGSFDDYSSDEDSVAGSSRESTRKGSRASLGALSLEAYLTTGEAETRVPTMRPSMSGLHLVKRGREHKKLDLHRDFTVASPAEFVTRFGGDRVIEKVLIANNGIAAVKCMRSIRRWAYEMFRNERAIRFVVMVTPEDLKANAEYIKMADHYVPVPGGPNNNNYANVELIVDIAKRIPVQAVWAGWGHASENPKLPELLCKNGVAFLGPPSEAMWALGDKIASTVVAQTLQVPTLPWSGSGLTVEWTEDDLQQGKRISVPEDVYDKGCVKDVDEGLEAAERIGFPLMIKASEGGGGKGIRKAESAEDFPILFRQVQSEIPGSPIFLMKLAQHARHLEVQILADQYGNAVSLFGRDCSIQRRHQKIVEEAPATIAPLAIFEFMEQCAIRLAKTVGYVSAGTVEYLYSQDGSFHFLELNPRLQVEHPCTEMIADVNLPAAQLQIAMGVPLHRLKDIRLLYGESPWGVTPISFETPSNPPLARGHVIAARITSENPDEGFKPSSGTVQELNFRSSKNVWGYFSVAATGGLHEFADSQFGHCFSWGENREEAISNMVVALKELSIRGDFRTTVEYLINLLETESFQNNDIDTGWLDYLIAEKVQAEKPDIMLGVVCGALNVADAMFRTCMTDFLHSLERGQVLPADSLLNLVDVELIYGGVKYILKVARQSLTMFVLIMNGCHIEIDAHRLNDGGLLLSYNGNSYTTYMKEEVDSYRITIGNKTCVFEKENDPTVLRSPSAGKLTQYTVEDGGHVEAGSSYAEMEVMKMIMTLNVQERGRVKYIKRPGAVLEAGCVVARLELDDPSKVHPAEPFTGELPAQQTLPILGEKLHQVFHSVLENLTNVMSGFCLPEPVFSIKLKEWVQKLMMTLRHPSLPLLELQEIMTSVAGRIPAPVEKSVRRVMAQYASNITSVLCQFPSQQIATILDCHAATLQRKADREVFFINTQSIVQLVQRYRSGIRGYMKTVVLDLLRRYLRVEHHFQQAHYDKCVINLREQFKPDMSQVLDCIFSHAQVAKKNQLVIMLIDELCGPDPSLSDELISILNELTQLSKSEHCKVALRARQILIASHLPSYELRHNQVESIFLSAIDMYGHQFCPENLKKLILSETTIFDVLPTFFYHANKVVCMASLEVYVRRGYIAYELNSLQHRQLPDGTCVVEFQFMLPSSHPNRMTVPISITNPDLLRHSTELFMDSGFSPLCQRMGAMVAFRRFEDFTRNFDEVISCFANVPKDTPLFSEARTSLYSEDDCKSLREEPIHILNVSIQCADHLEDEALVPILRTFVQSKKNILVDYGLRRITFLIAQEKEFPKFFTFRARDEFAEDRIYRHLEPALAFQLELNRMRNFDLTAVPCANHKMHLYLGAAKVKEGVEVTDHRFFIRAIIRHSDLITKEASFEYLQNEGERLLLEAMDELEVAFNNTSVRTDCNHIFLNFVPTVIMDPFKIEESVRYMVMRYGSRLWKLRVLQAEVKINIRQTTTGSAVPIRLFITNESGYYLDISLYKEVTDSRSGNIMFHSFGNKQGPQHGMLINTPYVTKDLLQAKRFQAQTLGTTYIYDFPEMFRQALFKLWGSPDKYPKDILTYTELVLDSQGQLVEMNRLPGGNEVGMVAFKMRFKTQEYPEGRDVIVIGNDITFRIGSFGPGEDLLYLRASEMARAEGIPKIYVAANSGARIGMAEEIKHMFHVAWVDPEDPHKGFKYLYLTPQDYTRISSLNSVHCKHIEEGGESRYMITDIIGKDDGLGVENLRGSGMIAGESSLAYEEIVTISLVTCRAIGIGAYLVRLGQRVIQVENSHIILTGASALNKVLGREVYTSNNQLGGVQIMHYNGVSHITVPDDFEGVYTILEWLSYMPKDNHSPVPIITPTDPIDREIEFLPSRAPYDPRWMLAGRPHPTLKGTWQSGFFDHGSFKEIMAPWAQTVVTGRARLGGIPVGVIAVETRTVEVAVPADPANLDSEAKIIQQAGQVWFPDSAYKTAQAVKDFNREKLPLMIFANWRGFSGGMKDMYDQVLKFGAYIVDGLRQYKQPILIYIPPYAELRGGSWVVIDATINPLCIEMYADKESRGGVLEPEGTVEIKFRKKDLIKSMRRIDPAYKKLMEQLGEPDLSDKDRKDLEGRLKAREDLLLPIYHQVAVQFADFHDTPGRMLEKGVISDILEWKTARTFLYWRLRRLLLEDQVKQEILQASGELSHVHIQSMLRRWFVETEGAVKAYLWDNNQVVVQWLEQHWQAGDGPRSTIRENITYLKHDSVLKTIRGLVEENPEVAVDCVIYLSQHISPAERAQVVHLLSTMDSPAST
Chain of fungal (fACC2) (Q00955 whole entry): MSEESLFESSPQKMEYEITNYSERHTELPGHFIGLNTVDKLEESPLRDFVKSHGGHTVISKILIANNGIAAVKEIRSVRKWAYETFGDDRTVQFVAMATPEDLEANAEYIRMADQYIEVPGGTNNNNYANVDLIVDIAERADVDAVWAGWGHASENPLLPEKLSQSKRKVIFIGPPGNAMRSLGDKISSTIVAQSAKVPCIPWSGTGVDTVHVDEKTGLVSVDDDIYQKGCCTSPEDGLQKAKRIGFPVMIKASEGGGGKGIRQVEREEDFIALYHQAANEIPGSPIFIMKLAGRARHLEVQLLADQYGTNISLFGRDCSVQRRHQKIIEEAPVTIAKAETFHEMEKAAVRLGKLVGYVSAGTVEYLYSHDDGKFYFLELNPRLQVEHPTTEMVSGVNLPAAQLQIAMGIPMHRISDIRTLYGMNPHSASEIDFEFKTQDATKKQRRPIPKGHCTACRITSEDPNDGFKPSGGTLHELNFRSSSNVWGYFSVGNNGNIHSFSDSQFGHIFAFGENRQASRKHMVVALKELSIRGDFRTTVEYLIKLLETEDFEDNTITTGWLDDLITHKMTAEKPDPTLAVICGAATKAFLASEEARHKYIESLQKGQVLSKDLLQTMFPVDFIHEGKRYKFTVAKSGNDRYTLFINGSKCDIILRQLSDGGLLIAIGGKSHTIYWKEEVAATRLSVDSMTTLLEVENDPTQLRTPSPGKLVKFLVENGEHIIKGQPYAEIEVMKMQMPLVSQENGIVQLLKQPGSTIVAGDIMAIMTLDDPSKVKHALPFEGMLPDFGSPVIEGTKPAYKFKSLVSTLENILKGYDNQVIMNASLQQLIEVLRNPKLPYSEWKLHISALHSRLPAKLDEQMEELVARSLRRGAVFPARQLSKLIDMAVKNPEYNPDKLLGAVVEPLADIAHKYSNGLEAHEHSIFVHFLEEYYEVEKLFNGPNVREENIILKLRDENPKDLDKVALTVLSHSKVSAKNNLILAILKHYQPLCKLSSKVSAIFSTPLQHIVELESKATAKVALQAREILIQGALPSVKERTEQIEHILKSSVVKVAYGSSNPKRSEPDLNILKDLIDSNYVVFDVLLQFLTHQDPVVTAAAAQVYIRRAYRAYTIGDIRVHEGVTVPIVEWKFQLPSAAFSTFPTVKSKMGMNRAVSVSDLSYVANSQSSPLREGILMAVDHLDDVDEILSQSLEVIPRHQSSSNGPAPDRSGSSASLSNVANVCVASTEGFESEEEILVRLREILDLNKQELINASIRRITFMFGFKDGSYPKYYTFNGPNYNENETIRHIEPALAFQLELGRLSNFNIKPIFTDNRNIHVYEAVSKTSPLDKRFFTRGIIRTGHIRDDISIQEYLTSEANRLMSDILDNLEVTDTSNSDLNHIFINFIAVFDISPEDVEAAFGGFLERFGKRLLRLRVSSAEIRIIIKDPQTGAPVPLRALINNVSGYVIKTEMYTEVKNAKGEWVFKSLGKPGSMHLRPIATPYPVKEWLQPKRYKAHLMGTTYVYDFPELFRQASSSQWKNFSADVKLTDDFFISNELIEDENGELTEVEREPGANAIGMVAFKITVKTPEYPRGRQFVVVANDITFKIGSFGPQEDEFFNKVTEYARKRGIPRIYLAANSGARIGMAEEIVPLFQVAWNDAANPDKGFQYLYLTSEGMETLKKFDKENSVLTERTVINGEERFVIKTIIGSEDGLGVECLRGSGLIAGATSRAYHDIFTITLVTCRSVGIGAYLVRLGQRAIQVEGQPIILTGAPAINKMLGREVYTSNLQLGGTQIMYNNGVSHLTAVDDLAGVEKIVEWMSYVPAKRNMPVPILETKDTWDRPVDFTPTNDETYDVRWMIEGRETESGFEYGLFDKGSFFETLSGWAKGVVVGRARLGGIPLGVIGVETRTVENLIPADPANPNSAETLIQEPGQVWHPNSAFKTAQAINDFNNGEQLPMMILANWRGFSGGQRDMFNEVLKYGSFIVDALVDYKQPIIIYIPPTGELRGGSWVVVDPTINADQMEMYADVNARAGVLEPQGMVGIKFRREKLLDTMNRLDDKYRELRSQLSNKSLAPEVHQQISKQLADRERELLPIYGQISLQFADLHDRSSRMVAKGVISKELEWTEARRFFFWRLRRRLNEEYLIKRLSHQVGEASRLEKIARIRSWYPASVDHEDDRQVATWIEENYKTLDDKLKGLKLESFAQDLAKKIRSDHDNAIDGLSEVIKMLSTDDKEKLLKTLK

SMILES	MIC [1, 6]	MIC [2, 7]	IC50 ([3]; Table 2a)	IC50 ([3]; Table 2b, additional results)	IC50 ([4]; Table 2a)	IC50 ([4]; Table 2b, additional results)	MIC [5, 8]	MIC [1, 9]	MIC [2, 10]	MIC [5, 11]
COc1ccc(F)cc1[C@H](Cn1c(=O)n([C@@H](C)C(=O)N(C)C(C)C)c(=O)c2c(C)c(-n3nccn3)sc21)OCC(C)(C)O [Compound I-170]	0.25 to 1 µg/mL (≈ 0.405 to 1.62 µM)	> 4.01 µg/mL	10 to 40 nM	10 to 40 nM	0.4 to 1 nM	0.3 to 1 nM	2.01 to 4 µg/mL (≈ 3.26 to 6.49 µM)	–	–	–
COc1ccc(F)cc1[C@H](Cn1c(=O)n([C@H](C)C(=O)NC(C)C)c(=O)c2c(C)c(-n3nccn3)sc21)OCC(C)(C)O [Compound I-171]	–	–	10 to 40 nM	10 to 40 nM	1 to 5 nM	1 to 5 nM	–	1.01 to 2 µg/mL (≈ 1.68 to 3.32 µM)	2.01 to 4 µg/mL (≈ 3.34 to 6.64 µM)	1.01 to 2 µg/mL (≈ 1.68 to 3.32 µM)
COc1ccc(F)cc1[C@H](Cn1c(=O)n([C@@H](C)C(=O)NC(C)C)c(=O)c2c(C)c(-n3nccn3)sc21)OCC(C)(C)O [Compound I-172]	–	–	5 to 10 nM	5 to 10 nM	0.4 to 1 nM	0.3 to 1 nM	–	1.01 to 2 µg/mL (≈ 1.68 to 3.32 µM)	2.01 to 4 µg/mL (≈ 3.34 to 6.64 µM)	1.01 to 2 µg/mL (≈ 1.68 to 3.32 µM)
COc1ccc(F)cc1[C@H](Cn1c(=O)n([C@H](C)C(N)=O)c(=O)c2c(C)c(-n3nccn3)sc21)OCC(C)(C)O [Compound I-173]	0.25 to 1 µg/mL (≈ 0.446 to 1.78 µM)	> 4.01 µg/mL	10 to 40 nM	10 to 40 nM	1 to 5 nM	1 to 5 nM	2.01 to 4 µg/mL (≈ 3.59 to 7.14 µM)	–	–	–
COc1ccc(F)cc1[C@H](Cn1c(=O)n([C@@H](C)C(N)=O)c(=O)c2c(C)c(-n3nccn3)sc21)OCC(C)(C)O [Compound I-174]	0.25 to 1 µg/mL (≈ 0.446 to 1.78 µM)	> 4.01 µg/mL	5 to 10 nM	5 to 10 nM	0.4 to 1 nM	0.3 to 1 nM	2.01 to 4 µg/mL (≈ 3.59 to 7.14 µM)	–	–	–
COc1ccc(F)cc1[C@H](Cn1c(=O)n([C@H](C)C(=O)N2CCCC2)c(=O)c2c(C)c(-n3nccn3)sc21)OCC(C)(C)O [Compound I-175]	0.25 to 1 µg/mL (≈ 0.407 to 1.63 µM)	2.01 to 4 µg/mL (≈ 3.27 to 6.51 µM)	5 to 10 nM	5 to 10 nM	0.4 to 1 nM	0.3 to 1 nM	1.01 to 2 µg/mL (≈ 1.64 to 3.25 µM)	–	–	–
COc1ccc(F)cc1[C@H](Cn1c(=O)n([C@@H](C)C(=O)N2CCCC2)c(=O)c2c(C)c(-n3nccn3)sc21)OCC(C)(C)O [Compound I-176]	0.25 to 1 µg/mL (≈ 0.407 to 1.63 µM)	2.01 to 4 µg/mL (≈ 3.27 to 6.51 µM)	10 to 40 nM	10 to 40 nM	1 to 5 nM	1 to 5 nM	1.01 to 2 µg/mL (≈ 1.64 to 3.25 µM)	–	–	–
COc1ccccc1[C@@H](O)Cn1c(=O)n([C@@H](C)C(=O)N(C)C(C)C)c(=O)c2c(C)c(-n3nccn3)sc21 [Compound I-200]	2.01 to 4 µg/mL (≈ 3.82 to 7.6 µM)	2.01 to 4 µg/mL (≈ 3.82 to 7.6 µM)	–	10 to 40 nM	–	1 to 5 nM	2.01 to 4 µg/mL (≈ 3.82 to 7.6 µM)	–	–	–
COc1ccccc1[C@@H](O)Cn1c(=O)n([C@@H](C)C(=O)NC(C)C)c(=O)c2c(C)c(-n3nccn3)sc21 [Compound I-201]	–	–	–	10 to 40 nM	–	0.3 to 1 nM	–	2.01 to 4 µg/mL (≈ 3.92 to 7.8 µM)	2.01 to 4 µg/mL (≈ 3.92 to 7.8 µM)	1.01 to 2 µg/mL (≈ 1.97 to 3.9 µM)
CCc1ccc(F)cc1[C@@H](O)Cn1c(=O)n(C(C)(C)C(N)=O)c(=O)c2c(C)c(-n3nccn3)sc21 [Compound I-202]	> 4.01 µg/mL	> 4.01 µg/mL	–	10 to 40 nM	–	1 to 5 nM	> 4.01 µg/mL	–	–	–
COc1ccccc1[C@H](Cn1c(=O)n([C@@H](C)C(=O)N(C)C(C)C)c(=O)c2c(C)c(-n3nccn3)sc21)OCCO [Compound I-207]	1.01 to 2 µg/mL (≈ 1.77 to 3.5 µM)	1.01 to 2 µg/mL (≈ 1.77 to 3.5 µM)	–	5 to 10 nM	–	0.3 to 1 nM	1.01 to 2 µg/mL (≈ 1.77 to 3.5 µM)	–	–	–
COc1ccccc1[C@H](Cn1c(=O)n(C(C)(C)C(=O)NC(C)C)c(=O)c2c(C)c(-n3nccn3)sc21)OCCN1CC(F)C1 [Compound I-209]	–	–	–	> 40 nM	–	1 to 5 nM	–	1.01 to 2 µg/mL (≈ 1.61 to 3.19 µM)	0.25 to 1 µg/mL (≈ 0.398 to 1.59 µM)	0.25 to 1 µg/mL (≈ 0.398 to 1.59 µM)
COc1ccc(F)cc1[C@H](Cn1c(=O)n(C(C)(C)C(=O)NC(C)C)c(=O)c2c(C)c(-n3nccn3)sc21)OCCC(=O)N(C)O [Compound I-219]	–	–	–	5 to 10 nM	–	1 to 5 nM	–	0.25 to 1 µg/mL (≈ 0.387 to 1.55 µM)	0.25 to 1 µg/mL (≈ 0.387 to 1.55 µM)	0.25 to 1 µg/mL (≈ 0.387 to 1.55 µM)
COc1ccc(F)cc1[C@H](Cn1c(=O)n(C(C)(C)C(=O)NC(C)C)c(=O)c2c(C)c(-n3nccn3)sc21)OCCC(O)CO (stereo partly drawn) [Compound I-220]	0.25 to 1 µg/mL (≈ 0.395 to 1.58 µM)	0.25 to 1 µg/mL (≈ 0.395 to 1.58 µM)	–	10 to 40 nM	–	1 to 5 nM	0.25 to 1 µg/mL (≈ 0.395 to 1.58 µM)	–	–	–
